Source: US10774071B2, “PD-1/PD-L1 inhibitors” (Gilead Sciences, Inc., priority 2018, dated 2020)
Like-named read-outs stand apart in the source and are kept apart here.

What was measured:
PD-L1 = PD-L1 (Homo sapiens (Human), UniProt Q9NZQ7); assay: PD-L1/PD-L1 dimerization biochemical protein-protein interaction assay (ALPHA); type: binding; conditions: read-out: AC50 PDL1 Dimer 1 nM
PD-1/PD-L1 = PD-1/PD-L1 (Homo sapiens (Human), UniProt Q9NZQ7); assay: PD-1/PD-L1 biochemical protein-protein interaction assay (ALPHA); type: binding; conditions: read-out: IC50 PD-L1-PD1
[1] = 0.5 nM His tagged PD-L1 and 0.5 nM FLAG tagged PD-L1, Table 4A
[2] = 0.3 nM His tagged PD-L1, 2.5 nM biotinylated Fc-PD-1, readings of 0.064 nM are equal to or less than 0.064 nM
[3] = 0.5 nM His tagged PD-L1 and 0.5 nM FLAG tagged PD-L1, Table 4B
[4] = 0.3 nM His tagged PD-L1, 2.5 nM biotinylated Fc-PD-1, Table 3B

Sequence of PD-1/PD-L1 (Q9NZQ7 19-238): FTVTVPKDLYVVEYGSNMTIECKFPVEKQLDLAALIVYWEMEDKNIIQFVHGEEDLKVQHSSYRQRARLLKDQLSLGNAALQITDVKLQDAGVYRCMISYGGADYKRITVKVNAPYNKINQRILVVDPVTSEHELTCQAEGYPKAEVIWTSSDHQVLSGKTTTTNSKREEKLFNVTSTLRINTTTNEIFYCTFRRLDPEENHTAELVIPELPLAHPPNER
Sequence of PD-L1 (Q9NZQ7 19-238): as above
Sequence of PD-L1 (Q9NZQ7 19-238): as above

AC50 (PD-L1; [1])	IC50 (PD-1/PD-L1; [2])	AC50 (PD-L1; [3])	IC50 (PD-1/PD-L1; [4])	Structure (SMILES)
–	–	120 nM	0.066 nM	COc1nc(-c2cccc(-c3cccc4c3CC[C@@H]4Oc3nc(OC)c(CN4CC[C@@H]5C[C@@]54C(=O)O)cc3C(F)(F)F)c2Cl)ccc1CN[C@H]1C[C@](C)(O)C1 [B-3]
–	–	20.9 nM	0.064 nM	COc1nc(-c2cccc(-c3cccc4c3CC[C@@H]4Oc3nc(OC)c(CN4CC5(C(=O)O)CCC4CC5)cc3C(F)(F)F)c2Cl)ccc1CN[C@H]1C[C@](C)(O)C1 [B-4]
–	–	20.7 nM	0.064 nM	COc1nc(-c2cccc(-c3cccc4c3CC[C@@H]4Oc3nc(OC)c(CN4CCC[C@@]4(C)C(=O)O)cc3C)c2Cl)ccc1CNC[C@@H]1CCC(=O)N1 [B-237]
–	–	7.96 nM	0.064 nM	COc1nc(-c2cccc(-c3cccc4c3CC[C@@H]4Oc3nc(OC)c(CN4CCC[C@@H]4C(=O)O)cc3C(F)(F)F)c2Cl)ccc1CNC[C@@H]1CCC(=O)N1 [B-6]
–	–	6.31 nM	0.064 nM	COc1nc(-c2cccc(-c3cccc4c3CC[C@@H]4Oc3nc(OC)c(CNC(C)(C)CC(=O)O)cc3C(F)(F)F)c2Cl)ccc1CNC[C@@H]1CCC(=O)N1 [B-196]
–	–	324 nM	0.076 nM	COc1nc(-c2cccc(-c3cccc4c3CC[C@@H]4Oc3cnc(CN4CC[C@@H](C(=O)O)C4)c(OC)n3)c2Cl)ccc1CNC[C@@H]1CCC(=O)N1 [B-156]
–	–	17.5 nM	0.064 nM	COc1nc(-c2cccc(-c3cccc4c3CC[C@@H]4Oc3nc(OC)c(CN[C@H](C(=O)O)C(C)C)cc3C(F)(F)F)c2Cl)ccc1CN[C@H]1C[C@](C)(O)C1 [B-212]
–	–	17 nM	0.064 nM	COc1nc(-c2cccc(-c3cccc4c3CC[C@@H]4Oc3nc(OC)c(CN4CC[C@@](C)(C(=O)O)C4)cc3C(F)(F)F)c2Cl)ccc1CN[C@H]1C[C@](C)(O)C1 [B-213]
–	–	46.5 nM	0.095 nM	COc1nc(-c2cccc(-c3cccc4c3CC[C@@H]4Oc3nc(OC)c(CNC[C@@H]4CCC(=O)N4)nc3Br)c2Cl)cnc1CNC[C@@H]1CCC(=O)N1 [B-38]
–	–	11 nM	0.064 nM	COc1nc(-c2cccc(-c3cccc4c3CC[C@@H]4Oc3nc(OC)c(CN4[C@@H]5C[C@@H]5C[C@H]4C(=O)O)cc3C(F)(F)F)c2Cl)ccc1CNC[C@@H]1CCC(=O)N1 [B-136]
–	–	13.5 nM	0.064 nM	COc1cc(-c2cccc(-c3cccc4c3CC[C@@H]4Oc3nc(OC)c(CNC4(C(=O)O)CC4)cc3Cl)c2Cl)cc(F)c1CNC[C@@H]1CCC(=O)N1 [B-128]
–	–	94.1 nM	0.064 nM	COc1nc(-c2cccc(-c3cccc4c3CC[C@@H]4Oc3nc(OC)c(CN4CC(C(=O)O)C4)cc3Cl)c2C#N)ccc1CNC[C@@H]1CCC(=O)N1 [B-74]
–	–	15.7 nM	0.064 nM	COc1nc(O[C@H]2CCc3c(-c4cccc(-c5ccc(CNC[C@@H]6CCC(=O)N6)c(OCC#N)n5)c4Cl)cccc32)c(Cl)cc1CNC1(C(=O)O)CC1 [B-14]
–	–	71.4 nM	0.066 nM	COc1nc(-c2cccc(-c3cccc4c3CC[C@@H]4Oc3nc(OC)c(CN4CC5CCC(C(=O)O)(C5)C4)cc3Cl)c2Cl)ccc1CNC[C@@H]1CCC(=O)N1 (stereo partly drawn) [B-11]
–	–	6.55 nM	0.064 nM	COC[C@H](NCc1cc(C(F)(F)F)c(O[C@H]2CCc3c(-c4cccc(-c5ccc(CNC[C@@H]6CCC(=O)N6)c(OC)n5)c4Cl)cccc32)nc1OC)C(=O)O [B-264]
–	–	5.33 nM	0.064 nM	COc1nc(-c2cccc(-c3cccc4c3CC[C@@H]4Oc3nc(OC)c(CN4CC5CCC4(C(=O)O)CC5)cc3C(F)(F)F)c2Cl)ccc1CN1CC2(CCC(=O)N2)C1 [B-226]
–	–	24.9 nM	0.064 nM	COc1nc(-c2cccc(-c3cccc4c3CC[C@@H]4Oc3nc(OC)c(CN4CC(C(=O)N=S(C)(=O)NC(C)=O)C4)cc3Cl)c2Cl)ccc1CNC[C@@H]1CCC(=O)N1 (stereo partly drawn) [B-159]
–	–	7.58 nM	0.064 nM	COc1nc(-c2cccc(-c3cccc4c3CC[C@@H]4Oc3nc(OC)c(CN[C@@H](C)C(=O)O)cc3C)c2Cl)ccc1CNC[C@@H]1CCC(=O)N1 [B-241]
–	–	17.9 nM	0.064 nM	COc1nc(-c2cccc(-c3cccc4c3CC[C@@H]4Oc3nc(OC)c(CN4CCCC(C(=O)O)CC4)cc3Cl)c2Cl)ccc1CNC[C@@H]1CCC(=O)N1 (stereo partly drawn) [B-177]
–	–	32.3 nM	0.085 nM	COc1nc(-c2cccc(-c3cccc4c3CC[C@@H]4Oc3nc(OCc4cc(Cl)cc(C#N)c4)c(CN4CC5(C(=O)O)CCC4CC5)cc3Cl)c2Cl)ccc1CNC[C@@H]1CCC(=O)N1 [B-31]
–	–	25.8 nM	0.064 nM	COc1nc(-c2cccc(-c3cccc4c3CC[C@@H]4Oc3nc(OC)c(CN4CC(C(=O)O)C5(CC5)C4)cc3Cl)c2Cl)ccc1CNC[C@@H]1CCC(=O)N1 (stereo partly drawn) [B-72]
–	–	2.86 nM	0.064 nM	COc1cc(-c2cccc(-c3cccc4c3CC[C@@H]4Oc3nc(OC)c(CN(C)CC(=O)O)cc3C(F)(F)F)c2Cl)cc(F)c1CNC[C@@H]1CCC(=O)N1 [B-187]
–	–	1.11 nM	0.064 nM	COc1nc(-c2cccc(-c3cccc4c3CC[C@@H]4Oc3nc(OC)c(CNC(C)(C)C(=O)O)cc3C(F)(F)F)c2Cl)ccc1CN[C@H]1C[C@](C)(O)C1 [B-1]
–	–	67.9 nM	0.086 nM	COc1nc(-c2cccc(-c3cccc4c3CC[C@@H]4Oc3nc(OC)c(CN4CC5CC5(C(=O)O)C4)cc3Cl)c2Cl)ccc1CNC[C@@H]1CCC(=O)N1 (stereo partly drawn) [B-99]
–	–	37.8 nM	0.064 nM	COc1nc(-c2cccc(-c3cccc4c3CC[C@@H]4Oc3nc(OC)c(CN4CCN(C)C(C(=O)O)C4)cc3Cl)c2Cl)ccc1CNC[C@@H]1CCC(=O)N1 (stereo partly drawn) [B-82]
–	–	12 nM	0.064 nM	COc1nc(O[C@H]2CCc3c(-c4cccc(-c5cc(F)c(CNC[C@@H]6CCC(=O)N6)c(OC)n5)c4Cl)cccc32)c(C(F)(F)F)cc1CN1CC[C@H](C(=O)O)C1 [B-188]
–	–	4.94 nM	0.064 nM	COc1nc(-c2cccc(-c3cccc4c3CC[C@@H]4Oc3nc(OC)c(CN[C@H]4C[C@](C)(O)C4)cc3C(F)(F)F)c2Cl)ccc1CNC[C@@H]1CCC(=O)N1 [B-263]
–	–	10.9 nM	0.064 nM	COc1nc(-c2cccc(-c3cccc4c3CC[C@@H]4Oc3nc(OC)c(CN4C[C@H](C)C[C@H]4C(=O)O)cc3Cl)c2Cl)ccc1CNC[C@@H]1CCC(=O)N1 [B-185]
–	–	133 nM	0.064 nM	COc1nc(O[C@H]2CCc3c(-c4cccc(-c5cc(C)c(CN6CC(C(=O)O)C7(CC7)C6)c(OC)n5)c4Cl)cccc32)c(Cl)cc1CNC[C@@H]1CCC(=O)N1 (stereo partly drawn) [B-123]

More lines, now with the values behind:

Structure (SMILES)	AC50 (PD-L1; [1])	IC50 (PD-1/PD-L1; [2])	AC50 (PD-L1; [3])	IC50 (PD-1/PD-L1; [4])
COc1nc(N[C@H]2CCc3c(-c4cccc(-c5ccc(CNC[C@@H]6CCC(=O)N6)c(OCC#N)n5)c4Cl)cccc32)c(C(F)(F)F)nc1CN1CC[C@@](C)(C(=O)O)C1 [A-26]	13.4 nM	≤ 0.064 nM	–	–
COc1nc(-c2cccc(-c3cccc4c3CC[C@@H]4Nc3nc(OC)c(CN[C@@H](C)C(=O)O)cc3C(F)(F)F)c2Cl)ccc1CNC[C@@H]1CCC(=O)N1 [A-64]	8.04 nM	≤ 0.064 nM	–	–
COc1nc(-c2cccc(-c3cccc4c3CC[C@@H]4Nc3nc(OC)c(CNCC(=O)O)nc3C(F)(F)F)c2Cl)ccc1CN[C@@H]1CCCC[C@@H]1O [A-109]	8.98 nM	≤ 0.064 nM	–	–
COc1nc(-c2cccc(-c3cccc4c3CC[C@@H]4Oc3nc(OC)c(CN4CC5(C(=O)O)CCC4CC5)cc3Cl)c2Cl)ccc1CNC1CC2CCC1N2C(C)=O (stereo partly drawn) [B-23]	–	–	62.8 nM	0.064 nM
COc1cc(N[C@H]2CCc3c(-c4cccc(-c5ccc(CNC[C@@H]6CCC(=O)N6)c(OC)n5)c4Cl)cccc32)c(C(F)(F)F)cc1CN1CC[C@@H](C(=O)O)C1 [A-11]	34.8 nM	≤ 0.064 nM	–	–
COc1nc(-c2cccc(-c3cccc4c3CC[C@@H]4Nc3nc(OC)c(CN[C@@H](C)C(=O)O)cc3C(F)(F)F)c2Cl)ccc1CN1CC(C)(O)C1 [A-63]	34.4 nM	≤ 0.064 nM	–	–
COc1nc(-c2cccc(-c3cccc4c3CC[C@@H]4Nc3nc(OC)c(CN)nc3C(F)(F)F)c2Cl)ccc1CNC[C@@H]1CCC(=O)N1 [A-17]	13.9 nM	0.077 nM	–	–
COc1nc(-c2cccc(-c3cccc4c3CC[C@@H]4Nc3nc(OC)c(CNC4(C(=O)O)CCC4)cc3C(F)(F)F)c2Cl)ccc1CNCC1CCC(=O)N1 (stereo partly drawn) [A-22]	8.17 nM	≤ 0.064 nM	–	–
COc1cc(N[C@H]2CCc3c(-c4cccc(-c5ccc(CNC[C@@H]6CCC(=O)N6)c(OC)n5)c4Cl)cccc32)c(Cl)cc1CN1CC[C@@H](C(=O)O)C1 [A-16]	42.1 nM	≤ 0.064 nM	–	–
COc1nc(-c2cccc(-c3cccc4c3CC[C@@H]4Nc3nc(OC)c(CNC(C)(C)C(=O)O)cc3C(F)(F)F)c2Cl)ccc1CNC[C@@H]1CCC(=O)N1 [A-40]	6.81 nM	≤ 0.064 nM	–	–
COc1nc(-c2cccc(-c3cccc4c3CC[C@@H]4Nc3nc(OC)c(CN[C@@H](C)C(=O)O)nc3C(F)(F)F)c2Cl)ccc1CNC[C@H]1C[C@](C)(O)C1 [A-86]	29.2 nM	≤ 0.064 nM	–	–
COc1nc(-c2cccc(-c3cccc4c3CC[C@@H]4Nc3nc(OC)c(CNCC(=O)O)nc3C(F)(F)F)c2Cl)ccc1CNC[C@H]1C[C@](C)(O)C1 [A-87]	22.3 nM	≤ 0.064 nM	–	–
COc1nc(-c2cccc(-c3cccc4c3CC[C@@H]4Nc3nc(OC)c(CN4CCC5CC4(C(=O)O)C5)cc3C(F)(F)F)c2Cl)ccc1CNC[C@@H]1CCC(=O)N1 [A-59]	7.75 nM	≤ 0.064 nM	–	–
COc1cc(-c2cccc(-c3cccc4c3CC[C@@H]4Nc3nc(OC)c(CNC4(C(=O)O)CC4)nc3C(F)(F)F)c2Cl)cc(F)c1CNC[C@@H]1CCC(=O)N1 [A-32]	12.5 nM	≤ 0.064 nM	–	–
COc1nc(-c2cccc(-c3cccc4c3CC[C@@H]4Nc3nc(OC)c(CN4CC5(C(=O)O)CCC4CC5)cc3C(F)(F)F)c2Cl)ccc1CNC[C@@H]1CCC(=O)N1 [A-1]	13.2 nM	≤ 0.064 nM	–	–
COc1nc(-c2cccc(-c3cccc4c3CC[C@@H]4Nc3nc(OC)c(CN4C5CCC4(C(=O)O)CC5)cc3C(F)(F)F)c2Cl)ccc1CNC[C@@H]1CCC(=O)N1 [A-61]	10.6 nM	≤ 0.064 nM	–	–
